From publication PMC10838150 (Toxicology in vitro : an international journal published in …, 2021)
Like-named read-outs stand apart in the source and are kept apart here.

Columns and labels:
Metabolic clearance [1] = details: human, HEK293 cells, Mean Half-life, HEK293, 1 μM, one-phase exponential decay
HEK293 [2] = assay: Metabolic clearance; details: HEK293, 1 μM
Metabolic clearance [3] = details: human, Mean Half-life, 50-donor pool PHHs, one-phase exponential decay
50-donor pool PHHs [4] = assay: Metabolic clearance; details: 1 μM
Metabolic clearance [5] = details: human, HepG2 cells, Mean Half-life, HepG2, 1 μM, one-phase exponential decay
HepG2 [6] = assay: Metabolic clearance; details: HepG2, 1 μM
Metabolic clearance [7] = details: human, MCF7 cells, Mean Half-life, MCF7, 1 μM, one-phase exponential decay
MCF7 [8] = assay: Metabolic clearance; details: MCF7, 1 μM
MCF7 [9] = test system: MCF7
HepG2 [10] = test system: HepG2
PHHs = details: 150 minutes, 50 μM 7HC
HEK293 [11] = test system: HEK293
CYP1A2 [12] = assay: CYP450-Glo bioluminescent assay CYP1A2 in Tox21 cell lines; assay type: cell-based; details: 24 hours pretreatment
HepG2 [13] = details: human, 1 μM
MCF7 [14] = details: human, 1 μM
HEK293 [15] = details: human, 1 μM
50-donor pool PHHs [16] = details: human, 1 μM
CYP2B6 [17] = assay: Hydroxybupropion formation from bupropion in C3H10T1/2; assay type: in vitro ADME, mouse; details: C3H10T1/2, 24 h, Michaelis-Menten fit
CYP2B6 [18] = molecular target: T1, CYP2B6 (Homo sapiens, UniProt P20813); assay: Hydroxybupropion formation from bupropion in HCT116; assay type: in vitro ADME; details: HCT116 cells
T1 sequence (P20813 1-491): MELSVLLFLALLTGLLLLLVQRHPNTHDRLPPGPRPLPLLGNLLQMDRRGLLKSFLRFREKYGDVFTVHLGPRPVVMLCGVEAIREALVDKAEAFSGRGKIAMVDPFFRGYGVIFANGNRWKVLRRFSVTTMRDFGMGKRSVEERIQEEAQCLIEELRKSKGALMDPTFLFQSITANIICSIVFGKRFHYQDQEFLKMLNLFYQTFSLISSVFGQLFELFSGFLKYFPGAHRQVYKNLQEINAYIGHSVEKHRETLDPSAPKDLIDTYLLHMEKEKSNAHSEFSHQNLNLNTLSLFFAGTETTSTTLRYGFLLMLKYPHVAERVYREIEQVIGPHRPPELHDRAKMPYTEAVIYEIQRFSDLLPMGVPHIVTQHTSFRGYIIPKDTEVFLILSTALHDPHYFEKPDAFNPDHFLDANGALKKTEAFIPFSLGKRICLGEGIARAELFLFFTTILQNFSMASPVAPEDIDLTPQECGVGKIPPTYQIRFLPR

CYP2B6 [19] = molecular target: T1, CYP2B6; assay: Hydroxybupropion formation from bupropion in HEK293; assay type: in vitro ADME; details: HEK293 cells
CYP2B6 [20] = molecular target: T1, CYP2B6; assay: Hydroxybupropion formation from bupropion in HepG2; assay type: in vitro ADME; details: HepG2 cells
CYP3A4/5 [21] = assay: 1-Hydroxymidazolam formation from midazolam in PHH suspensions; assay type: in vitro ADME, human
CYP3A4/5 [22] = assay: 1-Hydroxymidazolam formation from midazolam in HepG2; assay type: in vitro ADME, human
CYP1A2 [23] = assay: Acetaminophen formation from phenacetin in HepG2; assay type: in vitro ADME, human
CYP1A2 [24] = assay: Acetaminophen formation from phenacetin in C3H10T1/2; assay type: in vitro ADME, mouse
sulfotransferase = details: ref Ishii and Tamura, 2003, cited from earlier work
[25] = HepG2, 24 h, Michaelis-Menten fit

## O=c1ccc2ccc(O)cc2o1 [7HC, 7-hydroxycoumarin]
Metabolic clearance [1]
  half-life at 1 μM: ~3.5 h
HEK293 [2]
  Percent Depletion 240 min: 50%
  Percent Depletion 24 hour: 99%
HEK293 [2]; one-phase exponential decay
  Mean Half-life: 3.498 h
Metabolic clearance [3]
  half-life at 1 μM: ~0.383 h
50-donor pool PHHs [4]
  Percent Depletion 240 min: 99%
50-donor pool PHHs [4]; one-phase exponential decay
  Mean Half-life: 0.378 h
Metabolic clearance [5]
  half-life at 1 μM: ~4.83 h
HepG2 [6]
  Percent Depletion 240 min: 27%
HepG2 [6]; one-phase exponential decay
  Mean Half-life: 4.843 h
Metabolic clearance [7]
  half-life at 1 μM: ~4.83 h
MCF7 [8]
  Percent Depletion 240 min: 40%
MCF7 [8]; one-phase exponential decay
  Mean Half-life: 4.875 h

## O=C(O)[C@H]1O[C@@H](Oc2ccc3ccc(=O)oc3c2)[C@H](O)[C@@H](O)[C@@H]1O [7HCG, 7-hydroxycoumarin glucuronide]
MCF7 [9]; MCF7, 150 minutes, 50 μM 7HC
  Phase II Metabolite Formation Rate: 1.34 ± 0.206 pmol/minute-million cells
MCF7 [9]; MCF7, 24 hours, 50 μM 7HC
  Phase II Metabolite Formation Rate: 0.809 ± 0.0457 pmol/minute-million cells
HepG2 [10]; HepG2, 150 minutes, 50 μM 7HC
  Phase II Metabolite Formation Rate: 1.96 ± 0.887 pmol/minute-million cells
HepG2 [10]; HepG2, 24 hours, 50 μM 7HC
  Phase II Metabolite Formation Rate: 2.89 ± 0.563 pmol/minute-million cells
PHHs
  Phase II Metabolite Formation Rate: 190 ± 41.8 pmol/minute-million cells
HEK293 [11]; HEK293, 150 minutes, 50 μM 7HC
  Phase II Metabolite Formation Rate: -------------^1
HEK293 [11]; HEK293, 24 hours, 50 μM 7HC
  Phase II Metabolite Formation Rate: -------------^1

## Nn1nnc2ccccc21 [ABT, aminobenzotriazole]
CYP1A2 [12]; ABT 1 mM, HepG2, MCF7, CHO-K1, C3H10T1/2, GH3TRE-Luc
  inhibition of CYP1A2 luminescent metabolite formation: only inhibited in CHO-K1 cells

## O=C(O)[C@H]1O[C@@H](Oc2ccc(C(c3ccc(O)cc3)(C(F)(F)F)C(F)(F)F)cc2)[C@H](O)[C@@H](O)[C@@H]1O [BPAF G, bisphenol AF glucuronide]
MCF7 [9]; MCF7, 150 minutes, 50 μM BPAF or BPS
  Phase II Metabolite Formation Rate: -------------^1
MCF7 [9]; MCF7, 24 hours, 50 μM BPAF or BPS
  Phase II Metabolite Formation Rate: -------------^1
HepG2 [10]; HepG2, 150 minutes, 50 μM BPAF or BPS
  Phase II Metabolite Formation Rate: -------------^1
HEK293 [11]; HEK293, 150 minutes, 50 μM BPAF or BPS
  Phase II Metabolite Formation Rate: -------------^1
HEK293 [11]; HEK293, 24 hours, 50 μM BPAF or BPS
  Phase II Metabolite Formation Rate: -------------^1

## Oc1ccc(C(c2ccc(O)cc2)(C(F)(F)F)C(F)(F)F)cc1 [BPAF, bisphenol AF]
HepG2 [13]; 240 min
  Percent Depletion 240 min: 36 ±/- 8.2%
HepG2 [13]; 24 h
  Percent Depletion 24 hour: 66 ±/- 6.6%
HepG2 [13]; other cell line
  Mean Half-life (fast): 0.52 h
  Mean Half-life (slow): 1,626 min
MCF7 [14]; 240 min
  Percent Depletion 240 min: 42 ±/- 7.7%
MCF7 [14]; 24 h
  Percent Depletion 24 hour: 55 ±/- 7.4%
MCF7 [14]; other cell line
  Mean Half-life (fast): 0.388 h
  Mean Half-life (slow): ~9,684 min
HEK293 [15]; 240 min
  Percent Depletion 240 min: 36 ±/- 5.4%
HEK293 [15]; 24 h
  Percent Depletion 24 hour: 60 ±/- 4.5%
HEK293 [15]; other cell line
  Mean Half-life (slow): ~1,887 min
50-donor pool PHHs [16]; 240 min
  Percent Depletion 240 min: 82 ±/- 2.9%
50-donor pool PHHs [16]; hepatocytes
  Mean Half-life: 1.44 h

## CC(NC(C)(C)C)C(=O)c1cccc(Cl)c1 (stereo not drawn) [Bupropion, bupropion]
CYP2B6 [17]
  Vmax CYP2B6: 0.0422 ± 0.0119
CYP2B6 [18]
  Km at 24 h: 1910 ± 1050 µM
CYP2B6 [19]
  Km at 24 h: 1260 ± 734 µM
CYP2B6 [20]
  Km at 24 h: 4.79 ± 5.48 µM

## Cc1ncc2n1-c1ccc(Cl)cc1C(c1ccccc1F)=NC2 [Midazolam, midazolam]
CYP3A4/5 [21]; PHH, 30 min, Michaelis-Menten fit
  Vmax CYP3A4/5: 187 ± 8.35
CYP3A4/5 [21]; human
  Km at 30 min: 10.7 ± 1.34 µM
CYP3A4/5 [22]; [25]
  Vmax CYP3A4/5: 0.0177 ± 0.000912
CYP3A4/5 [22]; human, HepG2 cells
  Km at 24 h: 0.969 ± 0.268 µM

## COc1ccc2[nH]c([S+]([O-])Cc3ncc(C)c(OC)c3C)nc2c1 (stereo not drawn) [OMP, omeprazole]
CYP1A2 [12]; OMP 100 μM, Tox21 cell lines
  induction of CYP1A2 luminescence: only marginal increased luminescence

## CCOc1ccc(NC(C)=O)cc1 [Phenacetin]
CYP1A2 [23]; [25]
  Vmax CYP1A2: 0.320 ± 0.0234
CYP1A2 [23]; human, HepG2 cells
  Km at 24 h: 38.4 ± 11.8 µM
CYP1A2 [24]; C3H10T1/2, 24 h, Michaelis-Menten fit
  Vmax CYP1A2: 0.168 ± 0.0393
CYP1A2 [24]; mouse, C3H10T1/2 cells
  Km at 24 h: 247 ± 111 µM

## CC(C)(c1ccc(O)cc1)c1ccc(O)cc1 [bisphenol A]
sulfotransferase; after 5 days incubations with 10 μM exposure
  depletion: 4%
sulfotransferase; read-out: apparent Km for sulfotransferase activity
  Km: 74 µM
